Read-outs that look alike come from different tables or passages of the source.
What was measured:
Assay type in all cases: in vivo
Chilo suppressalis = assay: Example B1: Chilo suppressalis (striped rice stemborer), artificial diet, L2 larvae; details: 144 h, application rate of 200 ppm, 6 days after infestation, read-out: control in at least one of the three categories (mortality, anti-feedant effect, or growth inhibition)
Outline: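 Artificial diet was treated with aqueous test solutions made from 10,000 ppm DMSO stocks, dried, then infested with L2 larvae (6-8 per well). Mortality, anti-feeding effect and growth inhibition were scored against untreated samples 6 days after infestation, and control was counted when any category exceeded untreated.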

Myzus persicae = assay: Example B7: Myzus persicae (green peach aphid), intrinsic activity, sucrose solution 24-well; details: 120 h, read-out: control (mortality)
Excerpt: Example B7: Myzus persicae (Green Peach Aphid). Intrinsic Activity
Test compounds prepared from 10,000 ppm DMSO stock solutions were applied by pipette into 24-well microtiter plates and mixed with sucrose solution. The plates were closed with a stretched Parafilm. A plastic stencil with 24 holes was placed onto the plate and infested pea seedlings were placed directly on the Parafilm. The infested plate was closed with a gel blotting paper and another plastic stencil and then turned upside down. The samples were assessed for mortality 5 days after infestation.
The following compounds gave an effect of at least 80% control at an application rate of 12.5 ppm: […]

Plutella xylostella = assay: Example B8: Plutella xylostella (diamond back moth), artificial diet 24-well, eggs; details: 192 h, application rate of 200 ppm, 8 days after infestation, read-out: effect in at least one of the two categories (mortality or growth inhibition)
Outline: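 Artificial diet in 24-well plates treated with aqueous dilutions of DMSO stock (10,000 ppm stock) and dried, then infested with Plutella eggs. Mortality and growth inhibition scored versus untreated samples 8 days after infestation.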

Spodoptera littoralis = assay: Example B9: Spodoptera littoralis (Egyptian cotton leaf worm), cotton leaf discs, L1 larvae; details: foliar, 72 h, application rate of 200 ppm, 3 days after infestation, read-out: control in at least one of the three categories (mortality, anti-feedant effect, or growth inhibition)
Outline: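 Cotton leaf discs on agar sprayed with aqueous test solutions from 10,000 ppm DMSO stocks, dried, then infested with five L1 larvae. Mortality, anti-feeding and growth inhibition scored against untreated samples 3 days after infestation.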

[1] = application rate of 12.5 ppm, 5 days after infestation

## C[C@H](NC(=O)Nc1ccc(C#N)cc1Br)c1ncnn1-c1ncccn1 [Example P30, 1-(2-bromo-4-cyano-phenyl)-3-[(1S)-1-(2-pyrimidin-2-yl-1,2,4-triazol-3-yl)ethyl]urea]
Chilo suppressalis
  percent control (mortality, anti-feedant effect or growth inhibition) at 200 ppm: ≥ 80%
Myzus persicae; [1]
  mortality at 12.5 ppm: ≥ 80%

## C[C@H](NC(=O)Nc1cc2c(cc1Br)OC(F)(F)O2)c1ncnn1-c1ncccn1 [Example P79, 1-(6-bromo-2,2-difluoro-1,3-benzodioxol-5-yl)-3-[(1S)-1-(2-pyrimidin-2-yl-1,2,4-triazol-3-yl)ethyl]urea]
Plutella xylostella
  percent effect (mortality or growth inhibition) at 200 ppm: ≥ 80%
Chilo suppressalis
  percent control (mortality, anti-feedant effect or growth inhibition) at 200 ppm: ≥ 80%
Myzus persicae; [1]
  mortality at 12.5 ppm: ≥ 80%
Spodoptera littoralis
  percent control (mortality, anti-feedant effect or growth inhibition) at 200 ppm: ≥ 80%

## C[C@H](NC(=O)Nc1ccc(F)cc1S(C)(=O)=O)c1ncnn1-c1ncccn1 [Example P99, 1-(4-fluoro-2-methylsulfonyl-phenyl)-3-[(1S)-1-(2-pyrimidin-2-yl-1,2,4-triazol-3-yl)ethyl]urea]
Myzus persicae; [1]
  mortality at 12.5 ppm: ≥ 80%

## C[C@H](NC(=O)Nc1ccc(C(F)(F)F)cc1)c1ncnn1-c1ncccn1 [Example P122, 1-[(1S)-1-(2-pyrimidin-2-yl-1,2,4-triazol-3-yl)ethyl]-3-[4-(trifluoromethyl)phenyl]urea]
Myzus persicae; [1]
  mortality at 12.5 ppm: ≥ 80%

## C[C@H](NC(=O)Nc1cc(C(F)(F)F)cnc1Cl)c1ncnn1-c1ncccn1 [Example P127, 1-[2-chloro-5-(trifluoromethyl)-3-pyridyl]-3-[(1S)-1-(2-pyrimidin-2-yl-1,2,4-triazol-3-yl)ethyl]urea]
Plutella xylostella
  percent effect (mortality or growth inhibition) at 200 ppm: ≥ 80%
Chilo suppressalis
  percent control (mortality, anti-feedant effect or growth inhibition) at 200 ppm: ≥ 80%
Myzus persicae; [1]
  mortality at 12.5 ppm: ≥ 80%
Spodoptera littoralis
  percent control (mortality, anti-feedant effect or growth inhibition) at 200 ppm: ≥ 80%

## C[C@H](NC(=O)Nc1ccc(Br)cc1Br)c1ncnn1-c1ncccn1 [Example P130, 1-(2,4-dibromophenyl)-3-[(1S)-1-(2-pyrimidin-2-yl-1,2,4-triazol-3-yl)ethyl]urea]
Plutella xylostella
  percent effect (mortality or growth inhibition) at 200 ppm: ≥ 80%
Chilo suppressalis
  percent control (mortality, anti-feedant effect or growth inhibition) at 200 ppm: ≥ 80%
Myzus persicae; [1]
  mortality at 12.5 ppm: ≥ 80%
Spodoptera littoralis
  percent control (mortality, anti-feedant effect or growth inhibition) at 200 ppm: ≥ 80%

## C[C@H](NC(=O)Nc1cc(Oc2ncccn2)c(Cl)cc1Cl)c1ncnn1-c1ncccn1 [Example P138, 1-(2,4-dichloro-5-pyrimidin-2-yloxy-phenyl)-3-[(1S)-1-(2-pyrimidin-2-yl-1,2,4-triazol-3-yl)ethyl]urea]
Plutella xylostella
  percent effect (mortality or growth inhibition) at 200 ppm: ≥ 80%
Chilo suppressalis
  percent control (mortality, anti-feedant effect or growth inhibition) at 200 ppm: ≥ 80%
Myzus persicae; [1]
  mortality at 12.5 ppm: ≥ 80%

## C[C@H](NC(=O)Nc1cc(Cl)c(C#N)cc1Cl)c1ncnn1-c1ncccn1 [Example P179, 1-(2,5-dichloro-4-cyano-phenyl)-3-[(1S)-1-(2-pyrimidin-2-yl-1,2,4-triazol-3-yl)ethyl]urea]
Myzus persicae
  mortality at 12.5 ppm: ≥ 80%

## COC(=O)c1cc(NC(=O)N[C@@H](C)c2ncnn2-c2ncccn2)c(C(F)(F)F)cc1Cl [Example P210, methyl 2-chloro-5-[[(1S)-1-(2-pyrimidin-2-yl-1,2,4-triazol-3-yl)ethyl]carbamoylamino]-4-(trifluoromethyl)benzoate]
Plutella xylostella
  percent effect (mortality or growth inhibition) at 200 ppm: ≥ 80%
Chilo suppressalis
  percent control (mortality, anti-feedant effect or growth inhibition) at 200 ppm: ≥ 80%
Myzus persicae; [1]
  mortality at 12.5 ppm: ≥ 80%

## CC(C)Oc1cc(NC(=O)N[C@@H](C)c2ncnn2-c2ncccn2)c(F)cc1Br [Example P221, 1-(4-bromo-2-fluoro-5-isopropoxy-phenyl)-3-[(1S)-1-(2-pyrimidin-2-yl-1,2,4-triazol-3-yl)ethyl]urea]
Plutella xylostella
  percent effect (mortality or growth inhibition) at 200 ppm: ≥ 80%
Chilo suppressalis
  percent control (mortality, anti-feedant effect or growth inhibition) at 200 ppm: ≥ 80%
Myzus persicae; [1]
  mortality at 12.5 ppm: ≥ 80%

## CCCOc1cc(NC(=O)N[C@@H](C)c2ncnn2-c2ncccn2)c(F)cc1Br [Example P231, 1-(4-bromo-2-fluoro-5-propoxy-phenyl)-3-[(1S)-1-(2-pyrimidin-2-yl-1,2,4-triazol-3-yl)ethyl]urea]
Plutella xylostella
  percent effect (mortality or growth inhibition) at 200 ppm: ≥ 80%
Myzus persicae; [1]
  mortality at 12.5 ppm: ≥ 80%

## CC(NC(=O)Nc1ccc(Br)cc1OC(F)F)c1nccnc1-c1ncccn1 (stereo not shown) [Example P241, 1-[4-bromo-2-(difluoromethoxy)phenyl]-3-[1-(3-pyrimidin-2-ylpyrazin-2-yl)ethyl]urea]
Plutella xylostella
  percent effect (mortality or growth inhibition) at 200 ppm: ≥ 80%
Chilo suppressalis
  percent control (mortality, anti-feedant effect or growth inhibition) at 200 ppm: ≥ 80%
Myzus persicae; [1]
  mortality at 12.5 ppm: ≥ 80%
Spodoptera littoralis
  percent control (mortality, anti-feedant effect or growth inhibition) at 200 ppm: ≥ 80%

## C[C@H](NC(=O)Nc1cnc(C(F)(F)F)cc1Cl)c1nccnc1-c1ccc(C#N)cn1 [Example P250, 1-[4-chloro-6-(trifluoromethyl)-3-pyridyl]-3-[(1S)-1-[3-(5-cyano-2-pyridyl)pyrazin-2-yl]ethyl]urea]
Plutella xylostella
  percent effect (mortality or growth inhibition) at 200 ppm: ≥ 80%
Chilo suppressalis
  percent control (mortality, anti-feedant effect or growth inhibition) at 200 ppm: ≥ 80%
Myzus persicae; [1]
  mortality at 12.5 ppm: ≥ 80%
Spodoptera littoralis
  percent control (mortality, anti-feedant effect or growth inhibition) at 200 ppm: ≥ 80%

## C[C@H](NC(=O)Nc1cc(Oc2ccc(C#N)cn2)c(Cl)cc1Cl)c1ncnn1-c1ncccn1 [Example P274, 1-[2,4-dichloro-5-[(5-cyano-2-pyridyl)oxy]phenyl]-3-[(1S)-1-(2-pyrimidin-2-yl-1,2,4-triazol-3-yl)ethyl]urea]
Plutella xylostella
  percent effect (mortality or growth inhibition) at 200 ppm: ≥ 80%
Chilo suppressalis
  percent control (mortality, anti-feedant effect or growth inhibition) at 200 ppm: ≥ 80%
Myzus persicae; [1]
  mortality at 12.5 ppm: ≥ 80%

## COc1cc(Cl)c(NC(=O)N[C@@H](C)c2ncnn2-c2ncccn2)cc1OC [Example P304, 1-(2-chloro-4,5-dimethoxy-phenyl)-3-[(1S)-1-(2-pyrimidin-2-yl-1,2,4-triazol-3-yl)ethyl]urea]
Plutella xylostella
  percent effect (mortality or growth inhibition) at 200 ppm: ≥ 80%
Myzus persicae; [1]
  mortality at 12.5 ppm: ≥ 80%

## COC(=O)c1cc(NC(=O)N[C@@H](C)c2ncnn2-c2ncccn2)c(C)cc1C [Example P315, methyl 2,4-dimethyl-5-[[(1S)-1-(2-pyrimidin-2-yl-1,2,4-triazol-3-yl)ethyl]carbamoylamino]benzoate]
Myzus persicae; [1]
  mortality at 12.5 ppm: ≥ 80%

## C[C@H](NC(=O)Nc1cc(OC(F)(F)F)c(F)cc1Br)c1ncnn1-c1ncccn1 [Example P316, 1-[2-bromo-4-fluoro-5-(trifluoromethoxy)phenyl]-3-[(1S)-1-(2-pyrimidin-2-yl-1,2,4-triazol-3-yl)ethyl]urea]
Plutella xylostella
  percent effect (mortality or growth inhibition) at 200 ppm: ≥ 80%
Chilo suppressalis
  percent control (mortality, anti-feedant effect or growth inhibition) at 200 ppm: ≥ 80%
Myzus persicae; [1]
  mortality at 12.5 ppm: ≥ 80%
Spodoptera littoralis
  percent control (mortality, anti-feedant effect or growth inhibition) at 200 ppm: ≥ 80%

## C[C@H](NC(=O)Nc1cc(F)c(C(F)(F)F)cc1F)c1ncnn1-c1ncccn1 [Example P332, 1-[2,5-difluoro-4-(trifluoromethyl)phenyl]-3-[(1S)-1-(2-pyrimidin-2-yl-1,2,4-triazol-3-yl)ethyl]urea]
Chilo suppressalis
  percent control (mortality, anti-feedant effect or growth inhibition) at 200 ppm: ≥ 80%
Myzus persicae; [1]
  mortality at 12.5 ppm: ≥ 80%
Spodoptera littoralis
  percent control (mortality, anti-feedant effect or growth inhibition) at 200 ppm: ≥ 80%

## COc1cc(NC(=O)N[C@@H](C)c2ncnn2-c2ncccn2)c(C2CC2)cc1Cl [Example P355, 1-(4-chloro-2-cyclopropyl-5-methoxy-phenyl)-3-[(1S)-1-(2-pyrimidin-2-yl-1,2,4-triazol-3-yl)ethyl]urea]
Chilo suppressalis
  percent control (mortality, anti-feedant effect or growth inhibition) at 200 ppm: ≥ 80%
Myzus persicae; [1]
  mortality at 12.5 ppm: ≥ 80%

## CSc1cc(Cl)c(C(F)(F)F)cc1NC(=O)N[C@@H](C)c1ncnn1-c1ncccn1 [Example P360, 1-[4-chloro-2-methylsulfanyl-5-(trifluoromethyl)phenyl]-3-[(1S)-1-(2-pyrimidin-2-yl-1,2,4-triazol-3-yl)ethyl]urea]
Chilo suppressalis
  percent control (mortality, anti-feedant effect or growth inhibition) at 200 ppm: ≥ 80%
Myzus persicae; [1]
  mortality at 12.5 ppm: ≥ 80%
Spodoptera littoralis
  percent control (mortality, anti-feedant effect or growth inhibition) at 200 ppm: ≥ 80%

## C[C@H](NC(=O)Nc1cc(F)c(Cl)cc1Cl)c1ncnn1-c1ncccn1 [Example P380, 1-(2,4-dichloro-5-fluoro-phenyl)-3-[(1S)-1-(2-pyrimidin-2-yl-1,2,4-triazol-3-yl)ethyl]urea]
Plutella xylostella
  percent effect (mortality or growth inhibition) at 200 ppm: ≥ 80%
Chilo suppressalis
  percent control (mortality, anti-feedant effect or growth inhibition) at 200 ppm: ≥ 80%
Myzus persicae; [1]
  mortality at 12.5 ppm: ≥ 80%
Spodoptera littoralis
  percent control (mortality, anti-feedant effect or growth inhibition) at 200 ppm: ≥ 80%

## C[C@H](NC(=O)Nc1cc(OC(F)(F)C(F)F)c(Cl)cc1Cl)c1ncnn1-c1ncc(C(=O)N(C)C)s1 [Example P396, 2-[5-[(1S)-1-[[2,4-dichloro-5-(1,1,2,2-tetrafluoroethoxy)phenyl]carbamoyl-amino]ethyl]-1,2,4-triazol-1-yl]-N,N-dimethyl-thiazole-5-carboxamide]
Plutella xylostella
  percent effect (mortality or growth inhibition) at 200 ppm: ≥ 80%
Chilo suppressalis
  percent control (mortality, anti-feedant effect or growth inhibition) at 200 ppm: ≥ 80%
Spodoptera littoralis
  percent control (mortality, anti-feedant effect or growth inhibition) at 200 ppm: ≥ 80%
